Laboratory results reported in patent publication US20220387633A1, “SMART PEPTIDES AND TRANSFORMABLE NANOPARTICLES FOR CANCER IMMUNOTHERAPY” (The Regents of the University of California, priority 2019, published 2022).
Bridge positions count the residues as written; N and C are the ends. Square brackets hold non-standard residues; d marks the D form. Ends that are not written are not given here. Phe(3,5-F2) = N[C@@H](Cc1cc(F)cc(F)c1)C(=O)O; Hyp = O=C(O)[C@@H]1C[C@@H](O)CN1; BP = bis-pyrene

Tests used:
4T1 tumour cells = assay: Flow cytometry binding of LXY30 to 4T1 cells; set-up: species or system murine; conditions: 1 μM biotinylated LXY30
Method: Experiments were repeated three times. 3×10^5 cells incubated with 1 μM biotinylated LXY30 for 30 min on ice, after washing with PBS followed by incubation with 1:500 streptavidin-PE (1 mg/mL) for 30 min, then run with flow cytometry.

[1] = biological target: T1, HER2 receptor on the surface of HER2+ breast cancer cells (MCF-7/C6, SKBR-3, BT474) (human, UniProt P04626 23-1255); assay: confocal microscopy on MCF-7/C6 cells, 8 h
T1 construct: whole, on cells; Endogenous HER2 on cell lines; MCF-7/C6 is derived from the human breast cancer line MCF-7 by fractionated irradiation; also called cell surface HER2; HER2 receptors of MCF-7/C6 cells

binding result [1] | Molecule | binding to 4T1 tumour cells (4T1 tumour cells)
 | cdG-Phe(3,5-diF)-G-Hyp-NcR ([dC][dD]G[Phe(3,5-F2)]G[Hyp]N[dC]R; also: cyclic peptide, ring type and places not given here) [LXY30] | did bind
binds | {BP}-GGAAKYCDGFYACYMDV (disulfide 7-13 (inferred), Negative control with the HER2 ligand but without the beta-sheet forming peptide; Tested as nanoparticles of about 30 nm) | 
